Data from patent US20250339399A1, “SUPRAMOLECULAR SELF-ASSEMBLY SYSTEM” (Beijing Creatron Institute of Pharmaceutical Research Co., …, priority 2022, published 2025).

What was measured:
[1] = Binary supramolecular self-assembly systems of polymer and target: guest concentration over incubation time (Comparative Example 2); assay type: physicochemical
Protocol: Experiments were conducted according to the steps in Comparative Example 1, and quantitative analysis was carried out using the analytical method for each target to investigate the regulation ability […] stacking.

[2] = cited from earlier work
[3] = Guest molecule concentration after incubation in initial medium without polymer (Comparative Example 1); assay type: physicochemical; settings: 37° C.
Protocol: pH 2.0 hydrochloric acid, pH 4.5 acetate, and pH 6.5, pH 6.8, or pH 7.4 phosphate buffer solutions were prepared. The selection of each initial medium followed the principle that the solubility in the initial medium of the selected targets (or active ingredients) should low enough, but should meet the detection sensitivity and accuracy requirements of the corresponding analytical methods. Each buffer as initial media was placed in a 50 ml test tube with a stopper, shaken in a constant temperature air shaker at 37° C.±0.5° C., with an amplitude of 200 rpm, and incubated for 1 hour. […] Samples were taken at 0.5 h, 3 h and 6 h after incubation, centrifuged at 37° C., 13000 rpm for 5 minutes, and the supernatant was diluted at least 10 times with the mobile phase under the target analyte analytical method, filtered, the initial filtrate was discarded, and the continued filtrate was used as the test solution for injection analysis. The corresponding HPLC method under each target object item in Table 8 was used to determine the content of each target substance. When the solubility of the target in the initial medium is below the quantitative limit of the analytical method, a small amount of surfactant, such as sodium dodecyl sulfate (SDS), Tween20, or Tween80, can be added appropriately.
The above targets were incubated at 37° C.±0.5° C. for different time in an initial medium without any polymer. Each solid target formed by molecular stacking was removed by centrifugation, and the supernatant was analyzed using the HPLC method under each target item (see Table 8). The theoretical addition concentration of each target when its supramolecular self-assembly system was built was determined by its maximum dose in clinical use.

[4] = binary system with 0.5% polymer 101, incubation 0.5 h
[5] = binary system with 0.5% polymer 101, incubation 3 h
[6] = binary system with 0.5% polymer 101, incubation 6 h
[7] = binary system with 0.5% polymer 102, incubation 0.5 h
[8] = binary system with 0.5% polymer 102, incubation 3 h
[9] = binary system with 0.5% polymer 102, incubation 6 h
[10] = binary system with 0.5% polymer 103, incubation 0.5 h
[11] = binary system with 0.5% polymer 103, incubation 3 h
[12] = binary system with 0.5% polymer 103, incubation 6 h
[13] = binary system with 0.5% polymer 106, incubation 0.5 h
[14] = binary system with 0.5% polymer 106, incubation 3 h
[15] = binary system with 0.5% polymer 106, incubation 6 h
[16] = binary system with 0.5% polymer 107, incubation 0.5 h
[17] = binary system with 0.5% polymer 107, incubation 3 h
[18] = binary system with 0.5% polymer 107, incubation 6 h
[19] = binary system with 0.5% polymer 110, incubation 0.5 h
[20] = binary system with 0.5% polymer 110, incubation 3 h
[21] = binary system with 0.5% polymer 110, incubation 6 h
[22] = binary system with 0.5% polymer 104, incubation 0.5 h
[23] = binary system with 0.5% polymer 104, incubation 3 h
[24] = binary system with 0.5% polymer 104, incubation 6 h

| SMILES | Concentration of the target in the solution measured after different incubation time [1, 4] [ng/mL] | Concentration of the target in the solution measured after different incubation time [1, 5] [ng/mL] | Concentration of the target in the solution measured after different incubation time [1, 6] [ng/mL] | Concentration of the target in the solution measured after different incubation time [1, 7] [ng/mL] | Concentration of the target in the solution measured after different incubation time [1, 8] [ng/mL] | Concentration of the target in the solution measured after different incubation time [1, 9] [ng/mL] | Concentration of the target in the solution measured after different incubation time [1, 10] [ng/mL] | Concentration of the target in the solution measured after different incubation time [1, 11] [ng/mL] | Concentration of the target in the solution measured after different incubation time [1, 12] [ng/mL] | Concentration of the target in the solution measured after different incubation time [1, 13] [ng/mL] | Concentration of the target in the solution measured after different incubation time [1, 14] [ng/mL] | Concentration of the target in the solution measured after different incubation time [1, 15] [ng/mL] | Concentration of the target in the solution measured after different incubation time [1, 16] [ng/mL] | Concentration of the target in the solution measured after different incubation time [1, 17] [ng/mL] | Concentration of the target in the solution measured after different incubation time [1, 18] [ng/mL] | Concentration of the target in the solution measured after different incubation time [1, 19] [ng/mL] | Concentration of the target in the solution measured after different incubation time [1, 20] [ng/mL] | Concentration of the target in the solution measured after different incubation time [1, 21] [ng/mL] | LogD7.4 or Log P [2] | Concentration of the target in the solution measured after different incubation time [1, 22] [ng/mL] | other results |
| --- | --- | --- | --- | --- | --- | --- | --- | --- | --- | --- | --- | --- | --- | --- | --- | --- | --- | --- | --- | --- | --- |
| COC1=CC(=O)C[C@@H](C)[C@]12Oc1c(Cl)c(OC)cc(OC)c1C2=O [Griseofulvin, griseofulvin] | 221000 | 187900 | 171700 | 24100 | 23200 | 28600 | 51800 | 39800 | 39100 | 67900 | 62800 | 60700 | 109200 | 93900 | 88600 | 27100 | 23600 | 26300 | 2.17 | – | Concentration of guest molecule measured after different incubated time ([3]; 0.5 h, 0.1% SDS in pH 6.8 phosphate buffer): 35600 ng/mL; Concentration of guest molecule measured after different incubated time ([3]; 3 h, 0.1% SDS in pH 6.8 phosphate buffer): 27400 ng/mL; Concentration of guest molecule measured after different incubated time ([3]; 6 h, 0.1% SDS in pH 6.8 phosphate buffer): 24100 ng/mL |
| CCC(C)n1ncn(-c2ccc(N3CCN(c4ccc(OCC5COC(Cn6cncn6)(c6ccc(Cl)cc6Cl)O5)cc4)CC3)cc2)c1=O (stereo not shown) [Itraconazole, itraconazole] | 47900 | 4800 | 3000 | 69700 | 34500 | 24700 | 14100 | 8600 | 1900 | 43300 | 8300 | 6400 | 13500 | 1700 | 1200 | – | – | – | 7.31 | 31500 | Concentration of the target in the solution measured after different incubation time [1, 23]: 7100 ng/mL; Concentration of the target in the solution measured after different incubation time [1, 24]: 3100 ng/mL; Concentration of guest molecule measured after different incubated time ([3]; 0.5 h, 0.05% SDS in pH 6.8 phosphate buffer): 10700 ng/mL; Concentration of guest molecule measured after different incubated time ([3]; 3 h, 0.05% SDS in pH 6.8 phosphate buffer): 2900 ng/mL; Concentration of guest molecule measured after different incubated time ([3]; 6 h, 0.05% SDS in pH 6.8 phosphate buffer): 2700 ng/mL |
| O=C(O)[C@H]1O[C@@H](Oc2cc3oc(-c4ccc(O)cc4)cc(=O)c3c(O)c2O)[C@H](O)[C@@H](O)[C@@H]1O [Scutellarin, scutellarin] | 210400 | 125200 | 110200 | 122500 | 102000 | 102200 | 40400 | 42800 | 42800 | 57400 | 60800 | 54300 | 61700 | 41700 | 43100 | 95900 | 87300 | 78300 | 0.80 | – | Concentration of guest molecule measured after different incubated time ([3]; 0.5 h, pH 6.8 phosphate buffer): 45300 ng/mL; Concentration of guest molecule measured after different incubated time ([3]; 3 h, pH 6.8 phosphate buffer): 41700 ng/mL; Concentration of guest molecule measured after different incubated time ([3]; 6 h, pH 6.8 phosphate buffer): 43100 ng/mL |
| CC(C)OC(=O)CCC/C=C\C[C@@H]1[C@@H](/C=C/C(F)(F)COc2ccccc2)[C@H](O)C[C@@H]1O [Tafluprost, tafluprost] | 57600 | 44800 | 23100 | 52900 | 66100 | 67300 | 14600 | 23100 | 27400 | – | – | – | 34500 | 36800 | 35200 | – | – | – | 4.25 | 26700 | Concentration of the target in the solution measured after different incubation time [1, 23]: 24200 ng/mL; Concentration of the target in the solution measured after different incubation time [1, 24]: 17300 ng/mL; Concentration of guest molecule in solution ([1]; binary: 0.25% 102H, 6 h): 67300 ng/mL; Log P ([2]; prost derivatives, Table 31 (relevant information)): Log P:4.29 D-H: 2 R-H:4; Concentration of guest molecule measured after different incubated time ([3]; 0.5 h, pH 7.4 phosphate buffer): 18600 ng/mL; Concentration of guest molecule measured after different incubated time ([3]; 3 h, pH 7.4 phosphate buffer): 9300 ng/mL; Concentration of guest molecule measured after different incubated time ([3]; 6 h, pH 7.4 phosphate buffer): 6800 ng/mL |
| CC1(C)CCC(CN2CCN(c3ccc(C(=O)NS(=O)(=O)c4ccc(NCC5CCOCC5)c([N+](=O)[O-])c4)c(Oc4cnc5[nH]ccc5c4)c3)CC2)=C(c2ccc(Cl)cc2)C1 [Venetoclax, venetoclax] | 233600 | 249500 | 252600 | 151600 | 254900 | 272100 | 78600 | 72900 | 59500 | 232200 | 250500 | 156800 | 152200 | 153100 | 156800 | 385500 | 534600 | 566200 | 6.88 | – | Concentration of guest molecule measured after different incubated time ([3]; 0.5 h, pH 6.8 phosphate buffer): 19800 ng/mL; Concentration of guest molecule measured after different incubated time ([3]; 3 h, pH 6.8 phosphate buffer): 12400 ng/mL; Concentration of guest molecule measured after different incubated time ([3]; 6 h, pH 6.8 phosphate buffer): 9600 ng/mL |
